# Experimental data as given in US20210100737A1, “TRANSDERMAL DELIVERY OF DRONABINOL” (Starton Therapeutics, Inc., priority 2019, published 2021).
# Columns and labels:
# [1] = Delivery of THC through human cadaver skin (U.S. Pat. No. 8,449,908); format: in vitro ADME; conditions: calculated from the cumulative amount in 96 hrs
# Protocol: U.S. Pat. No. 8,449,908 provides delivery of the cumulative amount of 10000 ng THC in 96 hrs through the human cadaver skin. This amount represents the flux of 60 ng/cm^2/hr. The patch area can be calculated using following equation: […]
# In order to deliver a therapeutic dosage of 5 mg/day of delta-9-THC, a transdermal formulation would need to cover at least […] surface area of the patient's skin. This is an impractical patch size for any transdermal drug delivery system (TDDS).
# [2] = in 96 hrs through human cadaver skin; U.S. Pat. No. 8,449,908; cited from earlier work
# [3] = cited from earlier work
# [4] = dosage of 7 mg/m^2; cited from earlier work
structure (smiles),measurement,setting,value
"CCCCCc1cc(O)c2c(c1)OC(C)(C)[C@@H]1CCC(C)=C[C@@H]21 (relative stereo) [dronabinol, (6aR-trans)-6a,7,8,10a-tetrahydro-6,6,9-trimethyl-3-pentyl-6H-dibenzo[b,d]pyran-1-ol]",flux,[1],60 ng/cm^2/hr
same,cumulative amount of THC delivered,[2],10000 ng
same,share of the administered dose that reaches systemic circulation,"[3]; after oral administration, first pass hepatic metabolism",10%-20%
same,Alpha half-life,[3]; in vivo,about 4 hours
same,adverse effects,[4],not induced
